# Reference: publication PMC4942689, “Deciphering the function of the CNGB1b subunit in olfactory CNG channels” (Scientific Reports, 2016)
# “And” between values parts separate entries of the source, which are not always exact repeats. Identical values can stand only once. Like-named read-outs stand apart in the source and are kept apart here.
# Assays:
# CNGB1b = tested on: CNGB1b; parameters: method as in Nache et al., 2012; key: +: ligand binding to the respective modulatory subunits was either observed or not; −: ligand binding to the respective modulatory subunits was either observed or not; details: 10 μM; construct CNGB1b; ref Nache et al., 2012; cited from earlier work
# CNGA2TM:A4RE = tested on: CNGA2TM:A4RE; parameters: method as in Nache et al., 2012; key: +: ligand binding to the respective modulatory subunits was either observed or not; −: ligand binding to the respective modulatory subunits was either observed or not; details: 10 μM; construct CNGA2TM:A4RE; ref Nache et al., 2012; cited from earlier work
# CNGA2TM:A4 channels = tested on: CNGA2TM:A4 channels; parameters: method as in PMID 22786723; details: cited from earlier work
# CNGA4 = tested on: CNGA4; parameters: method as in Nache et al., 2012; key: +: ligand binding to the respective modulatory subunits was either observed or not; −: ligand binding to the respective modulatory subunits was either observed or not; details: 10 μM; construct CNGA4; ref Nache et al., 2012; cited from earlier work
# [1] = tested on: homotetrameric CNGA2RE (R538E) channels; parameters: method as in Nache et al., 2012; details: Equation 1, ref Nache et al., 2012; cited from earlier work
# CNGA2:A4:B1b channels = biological target: T1, CNGA2:A4:B1b channels (Rattus norvegicus, UniProt A0A8I5ZN27+Q00195+Q64359); assay: Activation and deactivation time courses after fast concentration jumps; type: biochemical; details: +10 mV, monoexponential fit
# T1 construct: expressed in transfected cells; host or cells: Xenopus laevis oocytes (cRNA injection 2:1:1), excised inside-out patches
# T1 sequence (Q00195 whole entry): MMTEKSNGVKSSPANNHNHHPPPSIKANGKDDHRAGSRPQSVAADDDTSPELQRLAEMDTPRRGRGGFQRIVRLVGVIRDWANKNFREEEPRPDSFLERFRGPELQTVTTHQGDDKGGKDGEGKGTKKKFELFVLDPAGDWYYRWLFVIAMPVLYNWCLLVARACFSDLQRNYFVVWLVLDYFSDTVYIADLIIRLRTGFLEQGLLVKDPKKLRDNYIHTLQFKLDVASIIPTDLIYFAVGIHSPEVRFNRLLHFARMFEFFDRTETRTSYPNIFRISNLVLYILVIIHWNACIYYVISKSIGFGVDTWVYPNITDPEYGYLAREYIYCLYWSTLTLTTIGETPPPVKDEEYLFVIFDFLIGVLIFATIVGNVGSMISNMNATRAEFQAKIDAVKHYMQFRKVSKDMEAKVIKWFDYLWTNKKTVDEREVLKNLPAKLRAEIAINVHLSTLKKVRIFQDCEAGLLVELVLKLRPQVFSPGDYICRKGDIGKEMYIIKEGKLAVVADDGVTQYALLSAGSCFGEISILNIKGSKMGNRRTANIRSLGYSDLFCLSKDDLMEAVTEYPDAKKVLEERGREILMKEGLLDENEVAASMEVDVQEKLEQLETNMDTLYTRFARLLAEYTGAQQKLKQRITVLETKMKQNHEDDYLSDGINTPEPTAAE
# T1 sequence (Q64359 whole entry): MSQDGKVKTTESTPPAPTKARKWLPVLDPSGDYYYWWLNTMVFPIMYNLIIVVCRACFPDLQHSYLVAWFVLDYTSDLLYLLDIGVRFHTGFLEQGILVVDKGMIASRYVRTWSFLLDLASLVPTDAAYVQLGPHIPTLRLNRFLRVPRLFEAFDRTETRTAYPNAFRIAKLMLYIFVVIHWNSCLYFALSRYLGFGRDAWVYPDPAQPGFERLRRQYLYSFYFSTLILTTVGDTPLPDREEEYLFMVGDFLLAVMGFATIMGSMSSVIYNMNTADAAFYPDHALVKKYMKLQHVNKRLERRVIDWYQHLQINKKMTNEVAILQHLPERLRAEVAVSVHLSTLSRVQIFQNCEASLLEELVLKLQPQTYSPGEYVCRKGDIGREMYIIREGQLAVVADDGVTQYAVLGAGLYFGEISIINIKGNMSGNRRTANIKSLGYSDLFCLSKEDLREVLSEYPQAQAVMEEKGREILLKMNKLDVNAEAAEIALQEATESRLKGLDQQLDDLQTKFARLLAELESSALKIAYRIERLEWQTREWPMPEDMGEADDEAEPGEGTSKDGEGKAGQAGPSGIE
# T1 sequence (A0A8I5ZN27 1-858 isoform A0A8I5ZN27-2): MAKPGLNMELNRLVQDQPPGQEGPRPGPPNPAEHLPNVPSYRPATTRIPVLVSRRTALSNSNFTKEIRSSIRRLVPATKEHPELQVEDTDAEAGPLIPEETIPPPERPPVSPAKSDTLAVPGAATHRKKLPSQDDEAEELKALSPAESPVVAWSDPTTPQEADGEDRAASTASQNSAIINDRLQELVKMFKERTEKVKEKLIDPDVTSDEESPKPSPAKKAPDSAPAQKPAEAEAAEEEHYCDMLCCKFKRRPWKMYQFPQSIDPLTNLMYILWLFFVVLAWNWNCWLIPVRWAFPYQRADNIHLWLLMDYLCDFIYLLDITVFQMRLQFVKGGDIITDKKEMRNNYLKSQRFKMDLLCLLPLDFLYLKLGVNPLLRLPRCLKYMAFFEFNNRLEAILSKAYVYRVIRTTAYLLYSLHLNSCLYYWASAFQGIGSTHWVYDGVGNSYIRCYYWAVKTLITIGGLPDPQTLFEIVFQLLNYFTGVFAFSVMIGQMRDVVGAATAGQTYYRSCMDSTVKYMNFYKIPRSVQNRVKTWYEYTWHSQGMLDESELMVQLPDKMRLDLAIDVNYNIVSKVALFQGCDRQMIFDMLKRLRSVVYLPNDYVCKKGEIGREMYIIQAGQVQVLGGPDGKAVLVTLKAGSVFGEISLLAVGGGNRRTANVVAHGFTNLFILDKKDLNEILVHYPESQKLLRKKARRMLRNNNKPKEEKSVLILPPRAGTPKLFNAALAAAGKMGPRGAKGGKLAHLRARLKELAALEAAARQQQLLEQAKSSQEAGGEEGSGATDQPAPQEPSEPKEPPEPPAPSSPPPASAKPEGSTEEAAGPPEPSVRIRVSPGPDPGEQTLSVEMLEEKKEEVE
# Procedure: To characterize the contribution of each subunit to the kinetics of channel gating, we also studied activation and deactivation time courses for CNGA2:A4:B1b, CNGA2, CNGA2RE:A4RE:B1b and CNGA2RE:A4:B1b RE channels. Fast concentration jumps from zero to 10 μM cGMP and back to zero were applied with the help of a piezo-driven switch pipette. Activation (Fig. 4a) and deactivation (Fig. 4b) time courses were fitted with a single exponential or the sum of two exponential functions in case of the CNGA2RE:A4RE:B1b channel. The obtained time constants are shown in bar graphs below the traces. In case of the biexponential time courses a mean time constant was obtained according to equation (S1) (Supplementary Information). CNGA2RE:A4RE:B1b channel activation triggered by CNGB1b only is the slowest, followed by that of CNGA4 only in CNGA2RE:A4:B1bRE channels and homotetrameric CNGA2 channels.
# Figure 4 Effects of the CNGB1b and CNGA4 subunit on the kinetics of channel activation and deactivation. […]
# Patch-clamp experiments were performed using an Axopatch 200B amplifier (Molecular Devices LLC, CA, U.S.A.) in the inside-out configuration. […] The currents were measured at +10 mV or, if mentioned, at +100 mV.
# [2] = biological target: T2, CNGA2RE:A4:B1bRE channels (Rattus norvegicus, UniProt A0A8I5ZN27+Q00195+Q64359, R1106E/R538E); assay: Concentration-activation relationship, patch-clamp; type: biochemical; details: for EC50: Equation 2, +100 mV
# T2 construct: expressed in transfected cells; host or cells: Xenopus laevis oocytes (cRNA injection), excised inside-out patches
# T2 sequence (Q00195 whole entry R538E): as the sequence (Q00195 whole entry) above, with R538E counted along it
# T2 sequence (Q64359 whole entry): as the sequence (Q64359 whole entry) above
# T2 sequence (A0A8I5ZN27 1-858 isoform A0A8I5ZN27-2 R657E): as the sequence (A0A8I5ZN27 1-858 isoform A0A8I5ZN27-2) above, with R657E counted along it
# Procedure: In order to determine the apparent affinity of the modulatory subunits in heterotetrameric CNGA2:A4:B1b channels for cGMP, we coexpressed each of them with disabled neighbored subunits, generating themselves activation effects only at much higher ligand concentrations. In case of two well-separated current components, this would allow us to determine the EC50 value for the CNGB1b and CNGA4 subunit in functional heterotetrameric channels.
# Patch-clamp experiments were performed using an Axopatch 200B amplifier (Molecular Devices LLC, CA, U.S.A.) in the inside-out configuration. The patch pipettes for recording of macroscopic currents were pulled from borosilicate glass tubing (outer diameter 2.0 mm, inner diameter 1.0 mm; Hilgenberg GmbH, Germany). The initial resistance was 0.7–1.3 MΩ. The patches were formed as pushed inside-out patches. […] Cyclic nucleotide concentration jumps were performed using a double-barreled glass pipette mounted on a piezo-driven device. Intracellular (bath) and extracellular (pipette) solutions contained (mM) 150 KCl, 1 EGTA, 5 Hepes, pH = 7.4 with KOH. […] Currents in the absence of the cyclic nucleotide were subtracted. All patches included in this study were first tested for channel expression in the presence of a saturating ligand concentration. Only patches with large current, i.e. a large number of channels, were included in our statistics. The currents were measured at +10 mV or, if mentioned, at +100 mV.
# Fits of equations to data points were performed with the 8.1G® software (OriginLab Corporation, Northampton, U.S.A.). Concentration-activation relationships were obtained by relating the actual current amplitude, I, to the maximum current amplitude elicited by a saturating concentration of ligand, Imax, and plotting this ratio as function of the ligand concentration, x. The concentration-activation data were fitted using the Hill equation
# For the concentration-activation relationships showing two components, the data points were fitted to the sum of two Hill equations according to
# EC50,h, EC50,l, Hh, and Hl are the ligand concentration of half maximum current and the Hill coefficient for the high and low affinity component, respectively. a and (1-a) denote the contribution of the high and low affinity component, respectively.
Molecule,Ligand binding to CNGB1b (CNGB1b),Ligand binding to CNGA4 (CNGA2TM:A4RE),degree of activation induced by binding to CNGA4 (CNGA2TM:A4 channels; CNGA2TM:A4 channels),"EC50 (CNGA2TM:A4 channels; in the presence of CNGA2TM only, read-out: EC50,h value for CNGA4)",Ligand binding to CNGA4 (CNGA4),EC50 [1],deactivation time constant (CNGA2:A4:B1b channels; concentration jump from 10 μM back to zero),activation time constant (CNGA2:A4:B1b channels; concentration jump from zero to 10 μM),"H1 ([2]; Hill coefficient of low affinity component, +100 mV)","a (contribution of the high affinity component) ([2]; fraction, Equation 2)","EC50 ([2]; high affinity component (action of CNGA4), read-out: EC50,h)","EC50 ([2]; low affinity component, read-out: EC50,l)",maximum contribution of CNGA4 to channel activation (a) ([2]; of the maximum channel activity generated by all subunits)
8-[DY-547]-AET-cGMP [fcGMP],−,−,~ 12%,6.8 µM,−,,,,,,,,
Nc1nc2c(ncn2[C@@H]2O[C@@H]3COP(=O)(O)O[C@H]3[C@H]2O)c(=O)[nH]1 [cGMP],,,,,,607 µM,~ 120 ms,~ 17 ms,1.1,0.24,8.9 µM and 8.86 µM,364 µM,24.6% and ~ 24%
